Source: patent US20050272055A1 (priority 2000, published 2005)
“Also recorded” adds a separate entry of the source.

Experiments:
[1] = tested on: piglets; conditions: in vivo
[2] = tested on: TNF-α; assay type: cell-based, human
[3] = tested on: human lymphoid cells; assay type: cell-based
[4] = tested on: piglets; design: species or system Yorkshire piglets; conditions: in vivo
[5] = tested on: CD69; assay type: cell-based, human

1,2,3,9-tetrahydro-9-methyl-3-[(2-methyl-1H-imidazol-1-yl)]4H-carbazol-4-one,monohychloride, dehydrate [Zofran]
BP-24 h (systolic blood pressure) [1]: 50-60
BP-48 h (systolic blood pressure) [1]: 50-65
Blood Gases [1]: norm
Temp-24 h [1]: 101-103°
Temp-48 h [1]: 100-103°
blood pressure levels in treated and untreated animals [1]: no change in the blood pressure
cytokine surge [1]: blocks the cytokine surge
diarrhea [1]: diarrhea was stopped
effectiveness as 5-HT receptor blockers against SEB-induced incapacitation [1]: effective
emesis [1]: recovered from emesis
symptoms caused by increase in serotonin levels [1]: can block the symptoms
temperature [1]: slight improvement in lowering the temperature

COc1ccc2c(c[n+](C)c3c4cc5c(cc4ccc23)OCO5)c1OC [Chelerythrine]
effect on SEB-induced TNF-alpha production [2]: blocked production of TNF-α
effect on SEB-induced proliferation [3]: effectively blocked

O=c1c(-c2ccc(O)cc2)coc2cc(O[C@@H]3O[C@H](CO)[C@@H](O)[C@H](O)[C@H]3O)cc(O)c12 [Genistin]
animals showing this outcome [4]: 2/2
changes in toxin-induced symptoms compared to the untreated controls [4]: did not show any significant changes
pathology versus SEB controls [4]: No discernable change in pathology

CO[C@H]1[C@@H](OC)C[C@H](C)[C@@H](OC)C2=CC(=O)C=C(NC(=O)/C(C)=C/C=C\[C@H](OC)[C@@H](OC(N)=O)/C(C)=C/[C@@H]1C)C2=O [Herbimycin]
animals showing this outcome [4]: 2/2
changes in toxin-induced symptoms compared to the untreated controls [4]: did not show any significant changes
pathology versus SEB controls [4]: No discernable change in pathology
rescuing the animals [4]: partially effective

CN1C2CCCC1CC(NC(=O)c1nn(C)c3ccccc13)C2 (stereo not shown) [Kytril]
diarrhea [1]: diarrhea was stopped
effectiveness as 5-HT receptor blockers against SEB-induced incapacitation [1]: effective
symptoms caused by increase in serotonin levels [1]: can block the symptoms

C[S+]([O-])c1ccc(-c2nc(-c3ccncc3)c(-c3ccc(F)cc3)[nH]2)cc1 (stereo not shown) [P-38 inhibitor]
effect on induction of the TNF-α gene by SEB [2]: brought down back to control levels
effect on SEB induction of CD69 [5]: clearly blocked
effect on SEB-induced proliferation [3]: clearly inhibited

CC(=O)CCCCn1c(=O)c2c(ncn2C)n(C)c1=O [Pentoxifylline]
animals showing this pathology [4]: 3/3
animals survived after the treatment [4]: 3 out of 3
animals with moderate pathology [4]: 2/3
animals worse-off, similar to SEB control [4]: 1/3
gross pathology findings [4]: No perirenal or mesenteric edema, though there is mesenteric lymphadenopathy
pathology [4]: Mild pathology; also recorded: Moderate pathology
time post exposure to SEB up to which it works well [4]: up to 4 hours
